In patent US20230117034A1, “PYRAZOLOTRIAZINES” (Bayer Aktiengesellschaft, priority 2019, published 2023):

What was measured:
[1] = biological target: T1, CDK12 (nuclear staining in CAL-120 cells) (Homo sapiens, UniProt Q9NYV4); experiment: CDK12 nuclear protein level: immunofluorescence/high content analysis (CAL-120); format: cell-based; conditions: for DC50: CAL-120 cells, 24 h, immunofluorescence, 50% reduction of nuclear CDK12 staining intensity, median, read-out: CDK12 degradation IF, DC50- [mol/l] (median); for (IC50 CDK12 high ATP) to (Degradation DC50 CDK12) ratio: ratio of IC50 CDK12 high ATP kinase assay to DC50 CDK12 degradation (IF, CAL-120)
T1 construct: endogenous in cells; host or cells: CAL-120 human breast cancer cells (DSMZ ACC 459)
T1 sequence (Q9NYV4 whole entry): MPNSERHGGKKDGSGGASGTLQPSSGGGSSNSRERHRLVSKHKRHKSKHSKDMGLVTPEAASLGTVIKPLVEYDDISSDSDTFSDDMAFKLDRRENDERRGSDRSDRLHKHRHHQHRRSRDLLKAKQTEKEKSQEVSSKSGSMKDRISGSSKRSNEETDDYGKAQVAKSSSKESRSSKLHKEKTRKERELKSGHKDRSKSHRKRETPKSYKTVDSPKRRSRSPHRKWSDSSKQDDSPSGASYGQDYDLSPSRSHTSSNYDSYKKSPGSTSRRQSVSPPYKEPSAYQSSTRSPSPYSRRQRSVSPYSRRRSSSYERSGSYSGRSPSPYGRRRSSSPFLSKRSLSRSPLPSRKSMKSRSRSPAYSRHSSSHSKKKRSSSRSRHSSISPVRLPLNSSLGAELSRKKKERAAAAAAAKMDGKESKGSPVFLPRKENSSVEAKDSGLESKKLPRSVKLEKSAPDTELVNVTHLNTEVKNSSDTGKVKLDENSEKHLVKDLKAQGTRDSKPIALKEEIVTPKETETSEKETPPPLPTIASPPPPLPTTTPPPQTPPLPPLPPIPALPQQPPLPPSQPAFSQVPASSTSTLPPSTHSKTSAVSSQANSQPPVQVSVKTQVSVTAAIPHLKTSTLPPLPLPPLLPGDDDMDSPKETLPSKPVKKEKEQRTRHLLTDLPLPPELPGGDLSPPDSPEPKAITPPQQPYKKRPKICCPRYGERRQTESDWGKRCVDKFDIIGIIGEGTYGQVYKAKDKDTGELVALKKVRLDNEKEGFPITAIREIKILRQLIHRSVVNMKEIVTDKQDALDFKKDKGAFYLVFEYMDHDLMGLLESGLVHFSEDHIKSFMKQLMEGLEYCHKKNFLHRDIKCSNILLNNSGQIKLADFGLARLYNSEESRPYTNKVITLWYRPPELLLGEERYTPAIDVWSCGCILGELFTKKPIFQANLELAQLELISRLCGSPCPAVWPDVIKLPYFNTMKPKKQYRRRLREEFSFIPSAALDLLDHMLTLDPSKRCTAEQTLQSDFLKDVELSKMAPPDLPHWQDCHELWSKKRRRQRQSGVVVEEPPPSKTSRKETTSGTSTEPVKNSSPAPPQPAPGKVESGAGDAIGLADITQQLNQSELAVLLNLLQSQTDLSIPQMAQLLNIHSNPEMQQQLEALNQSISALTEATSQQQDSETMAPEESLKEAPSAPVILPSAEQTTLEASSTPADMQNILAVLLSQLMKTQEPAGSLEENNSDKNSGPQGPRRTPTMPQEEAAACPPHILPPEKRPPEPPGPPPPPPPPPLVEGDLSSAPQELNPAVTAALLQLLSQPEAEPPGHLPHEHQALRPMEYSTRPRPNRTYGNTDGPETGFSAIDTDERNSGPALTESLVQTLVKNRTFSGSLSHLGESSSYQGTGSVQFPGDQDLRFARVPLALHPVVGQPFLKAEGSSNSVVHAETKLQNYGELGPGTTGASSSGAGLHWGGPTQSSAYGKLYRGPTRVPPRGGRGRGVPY
T1 sequence (O75909 whole entry partner): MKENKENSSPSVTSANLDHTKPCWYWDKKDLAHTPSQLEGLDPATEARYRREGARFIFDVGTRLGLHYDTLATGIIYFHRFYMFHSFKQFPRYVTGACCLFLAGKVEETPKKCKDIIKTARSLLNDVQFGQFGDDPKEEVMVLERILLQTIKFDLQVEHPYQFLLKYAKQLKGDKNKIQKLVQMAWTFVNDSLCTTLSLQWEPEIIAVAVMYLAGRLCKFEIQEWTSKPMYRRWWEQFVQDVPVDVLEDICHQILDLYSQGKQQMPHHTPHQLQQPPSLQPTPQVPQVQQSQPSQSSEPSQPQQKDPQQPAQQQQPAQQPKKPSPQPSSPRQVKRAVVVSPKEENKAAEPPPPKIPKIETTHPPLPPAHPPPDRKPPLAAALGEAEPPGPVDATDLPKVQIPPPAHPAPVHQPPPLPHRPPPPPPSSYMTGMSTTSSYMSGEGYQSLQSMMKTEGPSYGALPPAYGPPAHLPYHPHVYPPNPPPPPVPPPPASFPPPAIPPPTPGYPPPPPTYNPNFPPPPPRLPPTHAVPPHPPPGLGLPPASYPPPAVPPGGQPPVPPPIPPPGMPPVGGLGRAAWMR
In short: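 DC50 is the degrader concentration that halves nuclear CDK12 immunofluorescence relative to controls, measured by high-content imaging. CAL-120 cells were exposed to compound for 24 h at 37 °C before PFA fixation, and signal was normalized to DMSO and control wells.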

CDK9/CycT1 = biological target: T2, CDK9/CycT1 (Homo sapiens, UniProt P50750); experiment: CDK9/CycT1 high ATP kinase assay (TR-FRET, 2 mM ATP); format: biochemical; conditions: 2 mM ATP (high ATP); median; read-out: CDK9/CyclinT1, 2 mM ATP (high ATP), IC50 (median)
T2 construct: Recombinant full-length His-tagged human CDK9 and CycT1; purchased Life Technologies PV4131; host or cells: insect cells
T2 sequence (P50750 whole entry): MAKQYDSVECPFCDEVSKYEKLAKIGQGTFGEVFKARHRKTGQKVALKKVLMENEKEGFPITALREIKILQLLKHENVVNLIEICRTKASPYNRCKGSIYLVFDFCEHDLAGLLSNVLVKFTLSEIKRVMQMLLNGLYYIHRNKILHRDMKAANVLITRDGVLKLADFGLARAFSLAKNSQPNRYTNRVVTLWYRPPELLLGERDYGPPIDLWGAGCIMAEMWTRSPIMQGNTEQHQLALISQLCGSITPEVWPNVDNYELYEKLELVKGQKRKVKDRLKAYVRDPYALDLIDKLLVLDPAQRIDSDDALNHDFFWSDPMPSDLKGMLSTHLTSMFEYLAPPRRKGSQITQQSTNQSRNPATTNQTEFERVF
T2 sequence (O60563 whole entry partner): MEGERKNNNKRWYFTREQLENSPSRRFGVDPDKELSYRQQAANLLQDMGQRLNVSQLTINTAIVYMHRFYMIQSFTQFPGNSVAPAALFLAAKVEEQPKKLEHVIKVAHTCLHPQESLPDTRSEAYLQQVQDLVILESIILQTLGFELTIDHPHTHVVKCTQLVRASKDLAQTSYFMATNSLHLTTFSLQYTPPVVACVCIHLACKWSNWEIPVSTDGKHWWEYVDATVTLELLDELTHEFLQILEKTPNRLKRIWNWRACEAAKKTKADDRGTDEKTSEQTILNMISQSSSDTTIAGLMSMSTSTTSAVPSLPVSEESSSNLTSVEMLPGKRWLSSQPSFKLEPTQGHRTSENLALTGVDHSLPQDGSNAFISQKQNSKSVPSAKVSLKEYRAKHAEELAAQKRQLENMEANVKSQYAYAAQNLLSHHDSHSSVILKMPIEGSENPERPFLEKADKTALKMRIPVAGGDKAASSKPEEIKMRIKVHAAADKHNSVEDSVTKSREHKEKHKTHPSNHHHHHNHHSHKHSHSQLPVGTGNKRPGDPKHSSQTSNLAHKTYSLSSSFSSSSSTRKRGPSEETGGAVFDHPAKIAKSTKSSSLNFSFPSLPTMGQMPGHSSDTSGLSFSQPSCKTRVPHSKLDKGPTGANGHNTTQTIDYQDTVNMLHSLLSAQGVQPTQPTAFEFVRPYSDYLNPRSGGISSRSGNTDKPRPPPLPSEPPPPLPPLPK
In short: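 Full-length His-tagged human CDK9/CycT1 (insect cell, ~0.5 μg/mL) preincubated 15 min at 22 °C with compound in Tris pH 8.0, MgCl2, DTT buffer before reaction with biotinylated peptide substrate at high ATP (2 mM).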

CDK12/CycK = CDK12/CycK (Homo sapiens, UniProt Q9NYV4); experiment: CDK12/CycK high ATP kinase assay (TR-FRET, 2 mM ATP); format: biochemical; conditions: 2 mM ATP (high ATP); median; read-out: CDK12/CyclinK, 2 mM ATP (high ATP), IC50-[mol/l] (median)
Chain of CDK12/CycK (Q9NYV4 with tags, fused parts or gaps): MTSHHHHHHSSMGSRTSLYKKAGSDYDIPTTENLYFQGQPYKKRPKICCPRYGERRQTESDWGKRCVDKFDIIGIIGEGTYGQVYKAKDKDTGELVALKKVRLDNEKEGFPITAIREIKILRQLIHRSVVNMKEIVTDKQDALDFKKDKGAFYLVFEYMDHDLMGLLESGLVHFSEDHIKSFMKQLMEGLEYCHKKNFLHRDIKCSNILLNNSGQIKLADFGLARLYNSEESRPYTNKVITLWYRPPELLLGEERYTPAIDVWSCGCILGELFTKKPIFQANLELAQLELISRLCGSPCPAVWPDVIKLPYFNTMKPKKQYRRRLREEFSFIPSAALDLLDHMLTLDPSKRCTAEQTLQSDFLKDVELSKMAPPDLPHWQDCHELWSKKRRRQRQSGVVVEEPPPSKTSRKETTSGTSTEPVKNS
Chain of CDK12/CycK (O75909 1-300 partner limits assumed): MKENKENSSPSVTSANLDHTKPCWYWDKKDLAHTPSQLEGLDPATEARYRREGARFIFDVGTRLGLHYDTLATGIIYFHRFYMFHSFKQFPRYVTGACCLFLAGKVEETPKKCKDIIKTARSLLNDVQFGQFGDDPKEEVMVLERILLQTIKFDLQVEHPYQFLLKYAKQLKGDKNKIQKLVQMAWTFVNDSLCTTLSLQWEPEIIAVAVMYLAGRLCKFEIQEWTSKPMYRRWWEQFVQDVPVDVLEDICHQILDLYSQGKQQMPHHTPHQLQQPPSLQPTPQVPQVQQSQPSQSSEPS
In short: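 Read-out is TR-FRET (Eu-anti-rabbit IgG, anti-phospho-c-Myc Ser62 antibody, streptavidin-XL665) after EDTA stop. Reaction ran 60 min at 22 °C using 1 µM biotin-peptide and high ATP (2 mM) with roughly 0.75 nM recombinant CDK12/CycK, after 15 min compound pre-binding; normalised emission ratios yield IC50.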

| SMILES | DC50 [1] | (IC50 CDK12 high ATP) to (Degradation DC50 CDK12) ratio [1] | IC50 (CDK9/CycT1) | IC50 (CDK12/CycK) |
| --- | --- | --- | --- | --- |
| CN(C)C1CCN(c2nc(NCc3nc4ccccc4[nH]3)n3ncc(Br)c3n2)CC1 [Example 201, N-[(1H-benzimidazol-2-yl)methyl]-8-bromo-2-[4-(dimethylamino)piperidin-1-yl]pyrazolo[1,5-a][1,3,5]triazin-4-amine] | 0.0613 µM | >326 | > 20 µM | > 20 µM |
| Brc1cnn2c(NCc3nc4ccccc4[nH]3)nc(N3CCC4(CCCN4)C3)nc12 (stereo not drawn) [Example 215, N-(1H-benzimidazol-2-ylmethyl)-8-bromo-2-(1,7-diazaspiro[4.4]nonan-7-yl)pyrazolo[1,5-a][1,3,5]triazin-4-amine] | 0.00788 µM | >2537 | > 20 µM | > 20 µM |
| CN1CC[C@@H]2CN(c3nc(NCc4nc5ccccc5[nH]4)n4ncc(Br)c4n3)C[C@@H]21 [Example 217, N-[(1H-benzimidazol-2-yl)methyl]-8-bromo-2-[(3aR,6aR)-1-methylhexahydropyrrolo[3,4-b]pyrrol-5 (1H)-yl]pyrazolo[1,5-a][1,3,5]triazin-4-amine] | 0.00864 µM | >2315 | > 20 µM | > 20 µM |
| CN1C[C@H]2C[C@@H]1CN2c1nc(NCc2nc3ccccc3[nH]2)n2ncc(Br)c2n1 [Example 218, N-[(1H-benzimidazol-2-yl)methyl]-8-bromo-2-[(1R,4R)-5-methyl-2,5-diazabicyclo[2.2.1]heptan-2-yl]pyrazolo[1,5-a][1,3,5]triazin-4-amine] | 0.0105 µM | >1900 | > 20 µM | > 20 µM |
| CN1C[C@@H]2C[C@H]1CN2c1nc(NCc2nc3ccccc3[nH]2)n2ncc(Br)c2n1 [Example 219, N-[(1H-benzimidazol-2-yl)methyl]-8-bromo-2-[(1S,4S)-5-methyl-2,5-diazabicyclo[2.2.1]heptan-2-yl]pyrazolo[1,5-a][1,3,5]triazin-4-amine] | 0.0162 µM | >1232 | > 20 µM | > 20 µM |
| CO[C@H]1CCN(c2nc(NCc3nc4ccccc4[nH]3)n3ncc(Br)c3n2)C1 [Example 222, N-[(1H-benzimidazol-2-yl)methyl]-8-bromo-2-[(3S)-3-methoxypyrrolidin-1-yl]pyrazolo[1,5-a][1,3,5]triazin-4-amine] | 0.0488 µM | 123 | > 20 µM | 6.01 µM |
| CO[C@@H]1CCN(c2nc(NCc3nc4ccccc4[nH]3)n3ncc(Br)c3n2)C1 [Example 223, N-[(1H-benzimidazol-2-yl)methyl]-8-bromo-2-[(3R)-3-methoxypyrrolidin-1-yl]pyrazolo[1,5-a][1,3,5]triazin-4-amine] | 0.0576 µM | >287 | > 20 µM | > 16.5 µM |
| O[C@H]1CCN(c2nc(NCc3nc4ccccc4[nH]3)n3ncc(Br)c3n2)C1 [Example 224, (3S)-1-(4-{[(1H-benzimidazol-2-yl)methyl]amino}-8-bromopyrazolo[1,5-a][1,3,5]triazin-2-yl)pyrrolidin-3-ol] | 0.0384 µM | 407 | > 20 µM | 15.6 µM |
| CC1(O)CCN(c2nc(NCc3nc4ccccc4[nH]3)n3ncc(Br)c3n2)C1 (stereo not drawn) [Example 225, 1-[4-(1H-benzimidazol-2-ylmethylamino)-8-bromo-pyrazolo[1,5-a][1,3,5]triazin-2-yl]-3-methyl-pyrrolidin-3-ol] | 0.0221 µM | 466 | > 20 µM | 10.3 µM |

The next compounds have a lower DC50 [1] than those just listed; values first:

| DC50 [1] | (IC50 CDK12 high ATP) to (Degradation DC50 CDK12) ratio [1] | IC50 (CDK9/CycT1) | IC50 (CDK12/CycK) | SMILES |
| --- | --- | --- | --- | --- |
| 0.00468 µM | 1704 | > 20 µM | 7.98 µM | CN1CC2CCC1CN2c1nc(NCc2nc3ccccc3[nH]2)n2ncc(Br)c2n1 (stereo not drawn) [Example 221, N-(1H-benzimidazol-2-ylmethyl)-8-bromo-2-(5-methyl-2,5-diazabicyclo[2.2.2]octan-2-yl)pyrazolo[1,5-a][1,3,5]triazin-4-amine] |
| 0.00421 µM | 1318 | > 20 µM | 5.55 µM | Brc1cnn2c(NCc3nc4ccccc4[nH]3)nc(N3CC4CCC3CN4)nc12 (stereo not drawn) [Example 220, N-(1H-benzimidazol-2-ylmethyl)-8-bromo-2-(2,5-diazabicyclo[2.2.2]octan-2-yl)pyrazolo[1,5-a][1,3,5]triazin-4-amine] |
| 0.00392 µM | 2062 | > 20 µM | 8.09 µM | COc1cccc2[nH]c(CNc3nc(N4C[C@@H]5CCCN[C@@H]5C4)nc4c(C5CC5)cnn34)nc12 [Example 214, 8-cyclopropyl-N-[(4-methoxy-1H-benzimidazol-2-yl)methyl]-2-[(4aS,7aS)-octahydro-6H-pyrrolo[3,4-b]pyridin-6-yl]pyrazolo[1,5-a][1,3,5]triazin-4-amine] |
| 0.00331 µM | >1386 | > 20 µM | > 4.59 µM | CC1(C)CN(c2nc(NCc3nc4ccccc4[nH]3)n3ncc(Br)c3n2)CCN1 [Example 216, N-[(1H-benzimidazol-2-yl)methyl]-8-bromo-2-(3,3-dimethylpiperazin-1-yl)pyrazolo[1,5-a][1,3,5]triazin-4-amine] |
| 0.00232 µM | 1184 | > 20 µM | 2.74 µM | COc1cccc2[nH]c(CNc3nc(N4CCNCC4)nc4c(C5CC5)cnn34)nc12 [Example 211, 8-cyclopropyl-N-[(4-methoxy-1H-benzimidazol-2-yl)methyl]-2-(piperazin-1-yl)pyrazolo[1,5-a][1,3,5]triazin-4-amine] |
| 0.00211 µM | 497 | > 20 µM | 1.05 µM | COc1cccc2[nH]c(CNc3nc(N4CCOCC4)nc4c(C5CC5)cnn34)nc12 [Example 213, 8-cyclopropyl-N-[(4-methoxy-1H-benzimidazol-2-yl)methyl]-2-morpholino-pyrazolo[1,5-a][1,3,5]triazin-4-amine] |
| 0.00141 µM | >14143 | > 20 µM | > 20 µM | Cc1ccc2[nH]c(CNc3nc(N4CCN(C)CC4)nc4c(C5CC5)cnn34)nc2c1 [Example 210, 8-cyclopropyl-N-[(5-methyl-1H-benzimidazol-2-yl)methyl]-2-(4-methylpiperazin-1-yl)pyrazolo[1,5-a][1,3,5]triazin-4-amine] |
| 0.00109 µM | 3798 | > 20 µM | 4.15 µM | COc1cccc2[nH]c(CNc3nc(N4C[C@@H](C)N[C@@H](C)C4)nc4c(C5CC5)cnn34)nc12 [Example 212, 8-cyclopropyl-2-[(3R,5S)-3,5-dimethylpiperazin-1-yl]-N-[(4-methoxy-1H-benzimidazol-2-yl)methyl]pyrazolo[1,5-a][1,3,5]triazin-4-amine] |
| 0.00064 µM | 13757 | > 20 µM | 8.8 µM | Cc1ccc2[nH]c(CNc3nc(N4C[C@@H]5CCCN[C@@H]5C4)nc4c(Br)cnn34)nc2c1 [Example 203, 8-bromo-N-[(5-methyl-1H-benzimidazol-2-yl)methyl]-2-[(4aS, 7aS)-octahydro-6H-pyrrolo[3,4-b]pyridin-6-yl]pyrazolo[1,5-a][1,3,5]triazin-4-amine] |
| 0.000619 µM | 7019 | > 20 µM | 4.34 µM | Cc1ccc2[nH]c(CNc3nc(N4CCNCC4)nc4c(Br)cnn34)nc2c1 [Example 204, 8-bromo-N-[(5-methyl-1H-benzimidazol-2-yl)methyl]-2-(piperazin-1-yl)pyrazolo[1,5-a][1,3,5]triazin-4-amine] |
| 0.000506 µM | 15749 | > 20 µM | 7.97 µM | COc1ccc2[nH]c(CNc3nc(N4C[C@@H](C)N[C@@H](C)C4)nc4c(Br)cnn34)nc2c1 [Example 205, 8-bromo-2-[(3R,5S)-3,5-dimethylpiperazin-1-yl]-N-[(5-methoxy-1 H-benzimidazol-2-yl)methyl]pyrazolo[1,5-a][1,3,5]triazin-4-amine] |
| 0.000471 µM | 14455 | > 20 µM | 6.8 µM | Cc1ccc2[nH]c(CNc3nc(N4C[C@@H](C)N[C@@H](C)C4)nc4c(Br)cnn34)nc2c1 [Example 209, 8-bromo-2-[(3R,5S)-3,5-dimethylpiperazin-1-yl]-N-[(5-methyl-1H-benzimidazol-2-yl)methyl]pyrazolo[1,5-a][1,3,5]triazin-4-amine] |
